Measurements from ChEMBL document CHEMBL1833947, “Synthesis and biological investigation of potential atypical antipsychotics with a tropane core. Part 1” (Eur J Med Chem, 2011).
Calls of active or inactive are those of the source. No cut-off for these calls is given here.

system: Mus musculus; assay: Antipsychotic activity in mouse assessed as reversal of DOI-induced head twitches at 5 mg/kg, ip administered 30 mins before DOI challenge; type: functional; conditions: route intraperitoneal

| Compound | Activity |
| --- | --- |
| COc1cc(Cl)ccc1C(=O)N[C@H]1CC2CC[C@H](C1)N2Cc1ccco1 (single isomer, unassigned) | 40% |

system: Mus musculus; assay: Antipsychotic activity in mouse assessed as reversal of apomorphine-induced mesh climbing response at 2.5 mg/kg, ip administered 10 mins prior to apomorphine challenge measured after 20 mins; type: functional, organism-based; set-up: dose 2.5 mg/kg; conditions: not given

| Compound | Activity |
| --- | --- |
| CN1CCc2cccc3c2[C@H]1Cc1ccc(O)c(O)c1-3 | inactive |

system: Mus musculus; assay: Antipsychotic activity in mouse assessed as reversal of apomorphine-induced mesh climbing response at 50 mg/kg, ip administered 10 mins prior to apomorphine challenge measured after 30 mins; type: functional, organism-based; set-up: dose 50 mg/kg; conditions: not given

| Compound | Activity |
| --- | --- |
| COc1cccc(C(=O)N[C@@H]2CC3CC[C@H](C2)N3Cc2ccco2)c1OC (single isomer, unassigned; 4b) | Active |

system: Mus musculus; assay: Antipsychotic activity in mouse assessed as reversal of apomorphine-induced mesh climbing response at 2.5 mg/kg, ip administered 10 mins prior to apomorphine challenge measured after 30 mins; type: functional, organism-based; set-up: dose 2.5 mg/kg; conditions: not given

| Compound | Activity |
| --- | --- |
| CN1CCc2cccc3c2[C@H]1Cc1ccc(O)c(O)c1-3 | inactive |

system: Mus musculus; assay: Antipsychotic activity in mouse assessed as reversal of apomorphine-induced mesh climbing response at 10 mg/kg, ip administered 10 mins prior to apomorphine challenge measured after 20 mins; type: functional, organism-based; set-up: dose 10 mg/kg; conditions: not given

| Compound | Activity |
| --- | --- |
| COc1cccc(C(=O)N[C@@H]2CC3CC[C@H](C2)N3Cc2ccco2)c1OC (single isomer, unassigned; 4b) | inactive |

system: Mus musculus; assay: Antipsychotic activity in mouse assessed as reversal of apomorphine-induced mesh climbing response at 2.5 mg/kg, ip administered 10 mins prior to apomorphine challenge measured after 10 mins; type: functional, organism-based; set-up: dose 2.5 mg/kg; conditions: not given

| Compound | Activity |
| --- | --- |
| CN1CCc2cccc3c2[C@H]1Cc1ccc(O)c(O)c1-3 | inactive |

molecular target: T1, 5-hydroxytryptamine receptor 1A (Rattus norvegicus, UniProt P19327); assay: Displacement of [3H]8OH-DPAT from 5HT1A in rat brain cerebral cortex after 15 mins by scintillation counting; type: tissue-based; conditions: not given
T1 sequence (P19327 whole entry): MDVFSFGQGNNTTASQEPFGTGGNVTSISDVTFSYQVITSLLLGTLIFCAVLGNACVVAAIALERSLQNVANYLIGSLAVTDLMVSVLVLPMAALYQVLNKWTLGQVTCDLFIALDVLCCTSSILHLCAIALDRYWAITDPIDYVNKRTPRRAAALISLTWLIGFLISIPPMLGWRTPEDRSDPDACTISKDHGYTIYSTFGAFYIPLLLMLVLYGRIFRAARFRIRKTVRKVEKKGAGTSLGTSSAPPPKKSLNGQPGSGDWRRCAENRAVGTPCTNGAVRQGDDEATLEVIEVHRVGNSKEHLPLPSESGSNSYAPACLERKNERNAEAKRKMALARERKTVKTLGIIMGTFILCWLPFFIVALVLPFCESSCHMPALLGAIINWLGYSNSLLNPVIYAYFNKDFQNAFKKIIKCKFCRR

| Compound | Ki |
| --- | --- |
| COc1cc(Cl)ccc1C(=O)N[C@H]1CC2CC[C@H](C1)N2Cc1ccco1 (single isomer, unassigned) | 2.1 µM |

molecular target: D(2) dopamine receptor (Rattus norvegicus, UniProt P61169); assay: Displacement of [3H]spiperone from dopamine D2 receptor in rat striatum tissue after 20 mins by scintillation counting; type: tissue-based; conditions: not given
Sequence (P61169 whole entry): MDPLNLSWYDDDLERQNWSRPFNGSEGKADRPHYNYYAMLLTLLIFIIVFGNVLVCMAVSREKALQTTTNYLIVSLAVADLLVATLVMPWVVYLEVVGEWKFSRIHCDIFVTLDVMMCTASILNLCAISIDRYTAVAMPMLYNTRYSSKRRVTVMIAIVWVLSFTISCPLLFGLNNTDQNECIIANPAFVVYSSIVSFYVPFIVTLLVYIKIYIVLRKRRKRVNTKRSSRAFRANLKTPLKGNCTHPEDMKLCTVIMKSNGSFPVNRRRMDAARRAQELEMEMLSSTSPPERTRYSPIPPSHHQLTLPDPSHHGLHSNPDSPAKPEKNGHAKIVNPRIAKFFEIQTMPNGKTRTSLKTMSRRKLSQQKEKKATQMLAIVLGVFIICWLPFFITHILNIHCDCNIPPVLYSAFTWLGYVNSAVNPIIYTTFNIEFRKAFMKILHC

| Compound | Ki |
| --- | --- |
| COc1cc(Cl)ccc1C(=O)N[C@H]1CC2CC[C@H](C1)N2Cc1ccco1 (single isomer, unassigned) | 0.174 µM |

system: Mus musculus; assay: Antipsychotic activity in mouse assessed as reversal of DOI-induced head twitches at 20 mg/kg, ip administered 30 mins before DOI challenge; type: functional; conditions: route intraperitoneal

| Compound | Activity |
| --- | --- |
| COc1cc(Cl)ccc1C(=O)N[C@H]1CC2CC[C@H](C1)N2Cc1ccco1 (single isomer, unassigned) | 45% |

system: Mus musculus; assay: Antipsychotic activity in mouse assessed as reversal of apomorphine-induced mesh climbing response at 10 mg/kg, ip administered 10 mins prior to apomorphine challenge measured after 40 mins; type: functional, organism-based; set-up: dose 10 mg/kg; conditions: not given

| Compound | Activity |
| --- | --- |
| COc1cc(Cl)ccc1C(=O)N[C@H]1CC2CC[C@H](C1)N2Cc1ccco1 (single isomer, unassigned) | inactive |

molecular target: 5-hydroxytryptamine receptor 2A (Rattus norvegicus, UniProt P14842); assay: Displacement of [3H]ketanserin from 5HT2A in rat brain cerebral cortex after 20 mins by scintillation counting; type: tissue-based; conditions: not given
Sequence (P14842 whole entry): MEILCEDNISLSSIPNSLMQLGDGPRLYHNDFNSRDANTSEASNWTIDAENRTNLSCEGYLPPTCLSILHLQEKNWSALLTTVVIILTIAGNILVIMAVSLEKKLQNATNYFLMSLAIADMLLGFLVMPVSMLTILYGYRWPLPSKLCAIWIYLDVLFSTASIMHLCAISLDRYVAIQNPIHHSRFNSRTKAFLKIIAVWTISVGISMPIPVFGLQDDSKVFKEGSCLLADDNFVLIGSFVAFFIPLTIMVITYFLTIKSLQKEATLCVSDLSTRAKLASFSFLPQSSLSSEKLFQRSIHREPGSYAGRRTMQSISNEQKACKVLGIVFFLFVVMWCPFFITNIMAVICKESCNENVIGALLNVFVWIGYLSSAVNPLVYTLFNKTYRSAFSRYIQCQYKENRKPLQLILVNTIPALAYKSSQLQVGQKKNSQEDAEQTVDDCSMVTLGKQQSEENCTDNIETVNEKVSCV

| Compound | Ki |
| --- | --- |
| COc1cc(Cl)ccc1C(=O)N[C@H]1CC2CC[C@H](C1)N2Cc1ccco1 (single isomer, unassigned) | 0.682 µM |

system: Mus musculus; assay: Antipsychotic activity in mouse assessed as reversal of DOI-induced head twitches at 10 mg/kg, ip administered 30 mins before DOI challenge; type: functional; conditions: route intraperitoneal

| Compound | Activity |
| --- | --- |
| COc1cc(Cl)ccc1C(=O)N[C@H]1CC2CC[C@H](C1)N2Cc1ccco1 (single isomer, unassigned) | 40% |

system: Mus musculus; assay: Antipsychotic activity in mouse assessed as reversal of apomorphine-induced mesh climbing response at 2.5 mg/kg, ip administered 10 mins prior to apomorphine challenge measured after 60 mins; type: functional, organism-based; set-up: dose 2.5 mg/kg; conditions: not given

| Compound | Activity |
| --- | --- |
| CN1CCc2cccc3c2[C@H]1Cc1ccc(O)c(O)c1-3 | inactive |

system: Mus musculus; assay: Antipsychotic activity in mouse assessed as reversal of apomorphine-induced mesh climbing response at 50 mg/kg, ip administered 20 mins prior to apomorphine challenge measured after 120 mins; conditions: not given

| Compound | Activity |
| --- | --- |
| COc1cccc(C(=O)N[C@@H]2CC3CC[C@H](C2)N3Cc2ccco2)c1OC (single isomer, unassigned; 4b) | Active |
| COc1cc(Cl)ccc1C(=O)N[C@H]1CC2CC[C@H](C1)N2Cc1ccco1 (single isomer, unassigned) | Active |

system: Mus musculus; assay: Antipsychotic activity in mouse assessed as reversal of apomorphine-induced mesh climbing response at 2.5 mg/kg, ip administered 10 mins prior to apomorphine challenge measured after 50 mins; type: functional, organism-based; set-up: dose 2.5 mg/kg; conditions: not given

| Compound | Activity |
| --- | --- |
| CN1CCc2cccc3c2[C@H]1Cc1ccc(O)c(O)c1-3 | inactive |
